Measurements from ChEMBL document CHEMBL1201862, “PubChem BioAssay data set” (2004).
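Where inhibition never reached the appropriate level, the endpoint shown equals the highest concentration tested. Otherwise, values were interpolated linearly from a five-concentration, 48-hour dose response in 96-well plates. GI50 is the concentration that inhibits growth by half.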 Active and inactive are the calls of the source. Rule as the data show it: active = GI50 up to about 1.1 µM and inactive = higher.

Legend:
Experiment in all cases: inhibition of tumour cell growth, NCI panel, 48 h
786-0 = test system: 786-0
A498 = test system: A498
A549 = test system: A549
ACHN = test system: ACHN
CAKI-1 = test system: CAKI-1
CCRF-CEM = test system: CCRF-CEM
COLO 205 = test system: COLO 205
DLD-1 = test system: DLD-1
DMS-114 = test system: DMS-114
DMS-273 = test system: DMS-273
EKVX = test system: EKVX
HCC 2998 = test system: HCC 2998
HCT-116 = test system: HCT-116
HCT-15 = test system: HCT-15
HL-60 = test system: HL-60
HOP-18 = test system: HOP-18
HOP-62 = test system: HOP-62
HOP-92 = test system: HOP-92
HT-29 = test system: HT-29
IGROV-1 = test system: IGROV-1
K562 = test system: K562
KM-20L2 = test system: KM-20L2
KM12 = test system: KM12
LOX IMVI = test system: LOX IMVI
LXFL 529 = test system: LXFL 529
M14 = test system: M14
M19-MEL = test system: M19-MEL
MOLT-4 = test system: MOLT-4
Malme-3M = test system: Malme-3M
NCI-H226 = test system: NCI-H226
NCI-H23 = test system: NCI-H23
NCI-H460 = test system: NCI-H460
NCI-H522 = test system: NCI-H522
OVCAR-3 = test system: OVCAR-3
OVCAR-4 = test system: OVCAR-4
OVCAR-5 = test system: OVCAR-5
OVCAR-8 = test system: OVCAR-8
RPMI-8226 = test system: RPMI-8226
RXF 393 = test system: RXF 393
SF-268 = test system: SF-268
SF-295 = test system: SF-295
SF-539 = test system: SF-539
SK-MEL-28 = test system: SK-MEL-28
SK-MEL-2 = test system: SK-MEL-2
SK-MEL-5 = test system: SK-MEL-5
SK-OV-3 = test system: SK-OV-3
SN12C = test system: SN12C
SNB-19 = test system: SNB-19
SNB-75 = test system: SNB-75
SNB-78 = test system: SNB-78
SR = test system: SR
SW-620 = test system: SW-620
TK-10 = test system: TK-10
U-251 = test system: U-251
UACC-257 = test system: UACC-257
UACC-62 = test system: UACC-62
UO-31 = test system: UO-31
XF498 = test system: XF498
BT-549 = test system: BT-549
DU-145 = test system: DU-145
Hs-578T = test system: Hs-578T
MDA-MB-231 = test system: MDA-MB-231
T47D = test system: T47D

Question: Which results are given for `Cc1cc(N(CCC#N)CCC#N)ccc1/C=C1N=C(/C=C\c2ccccc2)OC\1=O`?
Answer: GI50 (786-0): > 100 µM (inactive); GI50 (A498): > 100 µM (inactive); GI50 (A549): > 100 µM (inactive); GI50 (ACHN): > 100 µM (inactive); GI50 (CAKI-1): > 100 µM (inactive); GI50 (CCRF-CEM): > 100 µM (inactive); GI50 (COLO 205): > 100 µM (inactive); GI50 (DLD-1): > 100 µM (inactive); GI50 (DMS-114): > 100 µM (inactive); GI50 (DMS-273): > 100 µM (inactive); GI50 (EKVX): > 100 µM (inactive); GI50 (HCC 2998): > 100 µM (inactive); GI50 (HCT-116): > 100 µM (inactive); GI50 (HCT-15): > 100 µM; GI50 (HL-60): > 100 µM (inactive); GI50 (HOP-18): > 100 µM (inactive); GI50 (HOP-62): > 100 µM (inactive); GI50 (HOP-92): > 100 µM (inactive); GI50 (HT-29): > 100 µM (inactive); GI50 (IGROV-1): > 100 µM (inactive); GI50 (K562): > 100 µM (inactive); GI50 (KM-20L2): > 100 µM (inactive); GI50 (KM12): > 100 µM (inactive); GI50 (LOX IMVI): > 100 µM (inactive); GI50 (LXFL 529): > 100 µM (inactive); GI50 (M14): > 100 µM (inactive); GI50 (M19-MEL): > 100 µM (inactive); GI50 (MOLT-4): > 100 µM (inactive); GI50 (Malme-3M): > 100 µM (inactive); GI50 (NCI-H226): > 100 µM (inactive); GI50 (NCI-H23): > 100 µM (inactive); GI50 (NCI-H460): > 100 µM (inactive); GI50 (NCI-H522): > 100 µM (inactive); GI50 (OVCAR-3): > 100 µM (inactive); GI50 (OVCAR-4): > 100 µM (inactive); GI50 (OVCAR-5): > 100 µM (inactive); GI50 (OVCAR-8): > 100 µM (inactive); GI50 (RPMI-8226): > 100 µM (inactive); GI50 (RXF 393): > 100 µM (inactive); GI50 (SF-268): > 100 µM (inactive); GI50 (SF-295): > 100 µM (inactive); GI50 (SF-539): > 100 µM (inactive); GI50 (SK-MEL-28): > 100 µM (inactive); GI50 (SK-MEL-2): > 100 µM (inactive); GI50 (SK-MEL-5): > 100 µM (inactive); GI50 (SK-OV-3): > 100 µM (inactive); GI50 (SN12C): > 100 µM (inactive); GI50 (SNB-19): > 100 µM (inactive); GI50 (SNB-75): > 100 µM (inactive); GI50 (SNB-78): > 100 µM (inactive); GI50 (SR): 30.3 µM (inactive); GI50 (SW-620): > 100 µM (inactive); GI50 (TK-10): > 100 µM (inactive); GI50 (U-251): > 100 µM (inactive); GI50 (UACC-257): > 100 µM (inactive); GI50 (UACC-62): > 100 µM (inactive); GI50 (UO-31): > 100 µM (inactive); GI50 (XF498): > 100 µM (inactive)

Question: Which results are given for `COC1C(O)CC(OC2CC(OC3CC(O[C@@H]4C(=O)c5c(cc6cc(OC7CC(OC8CC(O)C(O)C(C)O8)C(O)C(C)O7)c(C)c(O)c6c5O)C[C@H]4[C@H](OC)C(=O)[C@@H](O)[C@@H](C)O)OC(C)C3O)OC(C)C2O)OC1C` (some centres undefined)?
Answer: GI50 (786-0): < 0.0194 µM (active); GI50 (A549): < 0.0151 µM (active); GI50 (ACHN): < 0.0191 µM (active); GI50 (BT-549): < 0.01 µM (active); GI50 (CAKI-1): 0.356 µM (active); GI50 (COLO 205): 0.0189 µM (active); GI50 (DLD-1): 0.177 µM (active); GI50 (DMS-114): 0.0272 µM (active); GI50 (DMS-273): < 0.0168 µM (active); GI50 (DU-145): < 0.01 µM (active); GI50 (EKVX): 0.034 µM (active); GI50 (HCC 2998): 0.0136 µM (active); GI50 (HCT-116): < 0.01 µM (active); GI50 (HCT-15): 0.673 µM; GI50 (HOP-18): 0.0211 µM (active); GI50 (HOP-62): < 0.012 µM (active); GI50 (HOP-92): < 0.014 µM (active); GI50 (HT-29): < 0.0168 µM (active); GI50 (Hs-578T): < 0.01 µM (active); GI50 (KM-20L2): 0.0223 µM (active); GI50 (KM12): 0.0168 µM (active); GI50 (LXFL 529): 0.0129 µM (active); GI50 (M14): 0.0267 µM (active); GI50 (M19-MEL): 0.0109 µM (active); GI50 (MDA-MB-231): 0.0574 µM (active); GI50 (MOLT-4): < 0.0159 µM (active); GI50 (Malme-3M): < 0.0126 µM (active); GI50 (NCI-H226): < 0.104 µM (active); GI50 (NCI-H460): < 0.01 µM (active); GI50 (NCI-H522): < 0.0118 µM (active); GI50 (OVCAR-3): < 0.0271 µM (active); GI50 (OVCAR-4): 0.0671 µM (active); GI50 (OVCAR-5): < 0.0175 µM (active); GI50 (OVCAR-8): < 0.0193 µM (active); GI50 (RPMI-8226): < 0.01 µM (active); GI50 (RXF 393): < 0.01 µM (active); GI50 (SF-268): 0.0141 µM (active); GI50 (SF-295): < 0.0173 µM (active); GI50 (SF-539): < 0.0119 µM (active); GI50 (SK-MEL-28): < 0.0126 µM (active); GI50 (SK-MEL-2): < 0.0129 µM (active); GI50 (SK-MEL-5): < 0.0138 µM (active); GI50 (SK-OV-3): < 0.0236 µM (active); GI50 (SN12C): < 0.0197 µM (active); GI50 (SNB-19): < 0.0194 µM (active); GI50 (SNB-75): < 0.0331 µM (active); GI50 (SNB-78): < 0.01 µM (active); GI50 (SR): < 0.01 µM (active); GI50 (SW-620): < 0.0228 µM (active); GI50 (T47D): < 0.01 µM (active); GI50 (TK-10): 0.0431 µM (active); GI50 (U-251): 0.0112 µM (active); GI50 (UACC-257): < 0.0166 µM (active); GI50 (UACC-62): < 0.0131 µM (active); GI50 (UO-31): 0.0318 µM (active); GI50 (XF498): < 0.01 µM (active)
